# pEC50: −log10 of the molar value.
# Target: T1, TDO2 (Homo sapiens, UniProt P48775)
# T1 construct: decreased levels of NFK in SW48 cells (high TDO expressing cells)
# Assay: TDO2 cell assay (NFK GreenScreen, SW48 cells)
# Format: cell-based
# Details: SW48 cells (high TDO expressing), 200 uM tryptophan, 24 hours; Table 3; read-out: TDO2 Cell Fluor EC50
# T1 sequence (P48775 whole entry): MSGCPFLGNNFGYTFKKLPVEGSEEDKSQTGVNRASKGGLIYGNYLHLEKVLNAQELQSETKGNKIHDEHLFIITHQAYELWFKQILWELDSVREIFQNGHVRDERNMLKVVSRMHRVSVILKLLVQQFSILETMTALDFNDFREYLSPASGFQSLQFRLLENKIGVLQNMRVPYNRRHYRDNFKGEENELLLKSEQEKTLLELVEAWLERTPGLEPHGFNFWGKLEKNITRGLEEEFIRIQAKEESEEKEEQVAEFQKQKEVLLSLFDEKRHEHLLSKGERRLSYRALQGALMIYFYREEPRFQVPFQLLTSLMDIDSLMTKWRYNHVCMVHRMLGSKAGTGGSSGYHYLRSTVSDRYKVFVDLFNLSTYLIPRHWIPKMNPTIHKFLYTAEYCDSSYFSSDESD
row,SMILES,pEC50
1,"CC(C)(C(N)=O)C(O)C1c2ccccc2-c2cncn21 (single isomer, unassigned) [Example 155d]",< 4.60
2,"OC1c2nonc2CCC1C1c2ccccc2-c2cncn21 (single isomer, unassigned) [Example 163f]",< 4.60
3,"O[C@@H]1c2c(Cl)cnn2CC[C@@H]1[C@H]1c2ccccc2-c2cncn21 (single isomer, unassigned) [Example 160d]",5.22
4,"O=S(=O)(C1CC1)N1CC[C@@H](O)[C@H]([C@@H]2c3ccccc3-c3cncn32)C1 (single isomer, unassigned) [Example 70d]",< 4.60
5,"Nc1cc2n(n1)CCC(C1c3ccccc3-c3cncn31)C2O (single isomer, unassigned) [Example 161g]",< 4.60
6,CN(C)S(=O)(=O)N1CC[C@@H]([C@H]2c3ccccc3-c3cncn32)[C@H](O)C1 [Example 78b],6.80
7,"NS(=O)(=O)N1CCC2(CCC(C3c4ccccc4-c4cncn43)C2O)CC1 (single isomer, unassigned) [Example 182a]",< 4.60
8,"NS(=O)(=O)c1ccc2c(c1)C(O)C(C1c3ccccc3-c3cncn31)CC2 (single isomer, unassigned) [Example 105a]",4.92
9,"Cn1cc2c(n1)C(O)C(C1c3ccccc3-c3cncn31)CC2 (single isomer, unassigned) [Example 139-1b]",< 4.60
10,"NC(=O)c1ccc2c(c1)C(O)C(C1c3ccccc3-c3cncn31)CC2 (single isomer, unassigned) [Example 122d]",6.43
11,"OC1C(C2c3ccccc3-c3cncn32)CCC12CCOCC2 (single isomer, unassigned) [Example 68e]",6.57
12,"OC1CCOCC1C1c2c(Cl)cccc2-c2cncn21 (single isomer, unassigned) [Example 69d]",< 4.60
13,"OC1c2cccn2CCC1C1c2ccccc2-c2cncn21 (single isomer, unassigned) [Example 136c]",5.17
14,"OC1C(C2c3ccc(F)cc3-c3cncn32)CC12CCOCC2 (single isomer, unassigned) [Example 109b]",5.41

# Now from value to compound:
row,pEC50,SMILES
1,6.55,"OC1c2ccnn2CCCC1C1c2ccccc2-c2cncn21 (single isomer, unassigned) [Example 133e]"
2,< 4.60,"CS(=O)(=O)N1CCC(O)C(C2c3ccc(F)cc3-c3cncn32)C1 (single isomer, unassigned) [Example 118d]"
3,< 4.60,"O[C@@H]1COCC[C@H]1[C@H]1c2c(F)cccc2-c2cncn21 [Example 120a, (3S,4S)-4-((S)-6-fluoro-5H-imidazo[5,1-a]isoindol-5-yl)tetrahydro-2H-pyran-3-ol]"
4,4.80,"O=S1(=O)CC(O)C(C2c3ccccc3-c3cncn32)C1 (single isomer, unassigned) [Example 38a]"
5,4.71,"OCC(O)C1c2ccccc2-c2cncn21 (single isomer, unassigned) [Example 49b, 1-(5H-imidazo[5,1-a]isoindol-5-yl)ethane-1,2-diol]"
6,6.43,"OC1c2[nH]ncc2CCC1C1c2ccccc2-c2cncn21 (single isomer, unassigned) [Example 157a]"
7,6.14,"OC1c2nccn2CCC1C1c2ccccc2-c2cncn21 (single isomer, unassigned) [Example 88g]"
8,< 4.60,"N#CCN1CC[C@@H]([C@H]2c3ccccc3-c3cncn32)[C@H](O)C1 (single isomer, unassigned) [Example 27a]"
9,5.34,"OC1COCCC1C1c2c(Cl)cccc2-c2cncn21 (single isomer, unassigned) [Example 69-1d]"
10,< 4.60,"O[C@@H](C1CCOCC1)[C@H]1c2ccccc2-c2cncn21 (single isomer, unassigned) [Example 138b]"
11,5.16,"CC(C)(O)C1c2ccccc2-c2cncn21 (racemic) [Example 44, 2-(5H-imidazo[5,1-a]isoindol-5-yl)propan-2-ol]"
12,5.19,"CCS(=O)(=O)N1CC(O)C(C2c3ccccc3-c3cncn32)C1 (single isomer, unassigned) [Example 40a]"

# Reference: patent US12583858B2 (Genentech, Inc., priority 2015, dated 2026)
